Values quoted from earlier work in patent publication US7745427B2, “CGRP receptor antagonists” (Merck Sharp & Dohme Corp., priority 2004, dated 2010).
No end group written: not given here.

Columns and labels:
facial blood flow [1] = settings: marmoset; Doods et al. 2000
[2] = test system: acute attacks of migraine; settings: clinical trials; Olesen et al. 2004
facial blood flow [3] = settings: rat; Escott et al. 1995
middle meningeal artery = settings: rats, prior administration; Williamson et al. 1997

Molecule | increase in facial blood flow (facial blood flow [1]) | treating acute attacks of migraine [2] | increased facial blood flow (facial blood flow [3]) | increase in diameter of the middle meningeal artery (middle meningeal artery)
NCCCC[C@H](NC(=O)[C@@H](Cc1cc(Br)c(O)c(Br)c1)NC(=O)N1CCC(N2Cc3ccccc3NC2=O)CC1)C(=O)N1CCN(c2ccncc2)CC1 [BIBN4096BS] | blocked | effective | – | –
CGRP(8-37): "a peptide CGRP antagonist" (VTHRLAGLLSRSGGVVKNNFVPTNVGSKAF; ends and bridges not checked; UniProt P06881 90-119, looked up, fragment) | – | – | inhibited | blocked
